Test results reported in ChEMBL document CHEMBL5096149, “Recent Update on Targeting c-MYC G-Quadruplexes by Small Molecules for Anticancer Therapeutics” (J Med Chem, 2021).
Values belong to the compound of their own block, whether it stands above or below them.

Tests used:
[1] = tested on: Quadruplex DNA; assay: Thermal stabilization of c-MYC G-quadruplex DNA (unknown origin) assessed as change in melting temperature at 1:1 ratio in absence of K+ by FRET melting assay; assay type: nucleic-acid assay
[2] = tested on: Quadruplex DNA; assay: Thermal stabilization of c-MYC G-quadruplex DNA (unknown origin) assessed as change in melting temperature at 1:1 ratio in presence of K+ by FRET melting assay; assay type: nucleic-acid assay
[3] = tested on: Quadruplex DNA; assay: Binding affinity to c-MYC G-quadruplex DNA (unknown origin) assessed as association constant by fluorescence spectroscopy; assay type: nucleic-acid assay
[4] = tested on: Quadruplex DNA; assay: Thermal stabilization of c-MYC G-quadruplex DNA (unknown origin) assessed as change in melting temperature at 1:5 ratio by FRET melting assay; assay type: nucleic-acid assay
[5] = tested on: HepG2; assay: Cytotoxicity against human HepG2 cells assessed as reduction in cell viability incubated for 24 hrs by MTT assay; assay type: functional, cell-based; settings: HepG2, 24 h
[6] = tested on: MCF7; assay: Cytotoxicity against human MCF7 cells assessed as reduction in cell viability incubated for 24 hrs by MTT assay; assay type: functional, cell-based; settings: MCF7, 24 h
[7] = tested on: HCT-116; assay: Cytotoxicity against human HCT-116 cells assessed as reduction in cell viability incubated for 24 hrs by MTT assay; assay type: functional, cell-based; settings: HCT-116, 24 h
[8] = Cytotoxicity against mouse C2C12 cells assessed as reduction in cell viability incubated for 24 hrs by MTT assay; assay type: toxicity, cell-based
[9] = tested on: Quadruplex DNA; assay: Binding affinity to c-MYC G-quadruplex (Mer22) DNA (unknown origin) assessed as first order binding constant by isothermal titration calorimetry method; assay type: nucleic-acid assay
[10] = tested on: Quadruplex DNA; assay: Binding affinity to c-MYC G-quadruplex (Mer22) DNA (unknown origin) assessed as second order binding constant by isothermal titration calorimetry method; assay type: nucleic-acid assay
[11] = tested on: Quadruplex DNA; assay: Binding affinity to c-MYC G-quadruplex (Mer22) DNA (unknown origin) assessed as binding rate constant by surface plasmon resonance analysis; assay type: nucleic-acid assay
[12] = tested on: Quadruplex DNA; assay: Thermal stabilization of c-MYC G-quadruplex (Mer22) DNA (unknown origin) assessed as change in melting temperature at 1:3 ratio by UV-Vis spectroscopy; assay type: nucleic-acid assay
[13] = tested on: Quadruplex DNA; assay: Thermal stabilization of c-MYC G-quadruplex (Mer22) DNA (unknown origin) assessed as change in melting temperature at 1:3 ratio by FRET melting assay; assay type: nucleic-acid assay
[14] = tested on: Quadruplex DNA; assay: Binding affinity to c-MYC G-quadruplex DNA (unknown origin) assessed as association rate constant by fluorometric titration method; assay type: nucleic-acid assay
[15] = tested on: Quadruplex DNA; assay: Thermal stabilization of c-MYC G-quadruplex DNA (unknown origin) assessed as change in melting temperature at 1:10 ratio by FRET melting assay; assay type: nucleic-acid assay
[16] = tested on: Quadruplex DNA; assay: Thermal stabilization of c-MYC G-quadruplex DNA (unknown origin) assessed as change in melting temperature at 1:5 ratio by circular dichroism spectroscopy; assay type: nucleic-acid assay
[17] = tested on: HeLa; assay: Antiproliferative activity against human HeLa cells assessed as inhibition of cell growth by XTT assay; assay type: functional, cell-based
[18] = Antiproliferative activity against human Kidney epithelial cells assessed as inhibition of cell growth by XTT assay; assay type: toxicity, cell-based
[19] = tested on: Quadruplex DNA; assay: Binding affinity to c-MYC G-quadruplex DNA (unknown origin) assessed as association rate constant by isothermal titration calorimetry method; assay type: nucleic-acid assay
[20] = tested on: Quadruplex DNA; assay: Binding affinity to c-MYC G-quadruplex DNA (unknown origin) assessed as association rate constant by UV-Vis spectroscopy; assay type: nucleic-acid assay
[21] = tested on: Quadruplex DNA; assay: Binding affinity to c-MYC G-quadruplex (Pu22) DNA (unknown origin) assessed as association rate constant by surface plasmon resonance analysis; assay type: nucleic-acid assay
[22] = tested on: Quadruplex DNA; assay: Thermal stabilization of c-MYC G-quadruplex (Pu22) DNA (unknown origin) assessed as change in melting temperature at 1:1 ratio by circular dichroism spectroscopy; assay type: nucleic-acid assay
[23] = tested on: L-363; assay: Cytotoxicity against human L-363 cells assessed as inhibition of cell viability incubated for 72 hrs by MTS assay; assay type: functional, cell-based; settings: L-363, 72 h
[24] = tested on: RPMI-8226; assay: Cytotoxicity against human RPMI-8226 cells assessed as inhibition of cell viability incubated for 72 hrs by MTS assay; assay type: functional, cell-based; settings: RPMI-8226, 72 h
[25] = Cytotoxicity against human ARD cells assessed as inhibition of cell viability incubated for 72 hrs by MTS assay; assay type: functional, cell-based
[26] = Cytotoxicity against human JIM1 cells assessed as inhibition of cell viability incubated for 72 hrs by MTS assay; assay type: functional, cell-based; settings: JIM1, 72 h
[27] = Cytotoxicity against human KMM-1 cells assessed as inhibition of cell viability incubated for 72 hrs by MTS assay; assay type: functional, cell-based; settings: KMM-1, 72 h
[28] = tested on: LP-1; assay: Cytotoxicity against human LP-1 cells assessed as inhibition of cell viability incubated for 72 hrs by MTS assay; assay type: functional, cell-based; settings: LP-1, 72 h
[29] = tested on: KMS-12-PE; assay: Cytotoxicity against human KMS-12-PE cells assessed as inhibition of cell viability incubated for 72 hrs by MTS assay; assay type: functional, cell-based
[30] = Cytotoxicity against human KMS-27 cells assessed as inhibition of cell viability incubated for 72 hrs by MTS assay; assay type: functional, cell-based; settings: KMS-27, 72 h
[31] = tested on: AMO1; assay: Cytotoxicity against human AMO1 cells assessed as inhibition of cell viability incubated for 72 hrs by MTS assay; assay type: functional, cell-based; settings: AMO1, 72 h
[32] = Cytotoxicity against human MOLP8 cells assessed as inhibition of cell viability incubated for 72 hrs by MTS assay; assay type: functional, cell-based; settings: MOLP-8, 72 h
[33] = tested on: Quadruplex DNA; assay: Binding affinity to c-MYC G-quadruplex (Pu22) DNA (unknown origin) assessed as association constant by fluorescence spectroscopy; assay type: nucleic-acid assay
[34] = tested on: Quadruplex DNA; assay: Binding affinity to c-MYC G-quadruplex (Pu22) DNA (unknown origin) assessed as association rate constant by isothermal titration calorimetry method; assay type: nucleic-acid assay
[35] = tested on: Quadruplex DNA; assay: Thermal stabilization of c-MYC G-quadruplex DNA (unknown origin) assessed as change in melting temperature at 1:2 ratio by circular dichroism spectroscopy; assay type: nucleic-acid assay
[36] = tested on: Quadruplex DNA; assay: Binding affinity to c-MYC G-quadruplex DNA (unknown origin) assessed as first order binding constant by electrospray ionization mass spectrometry; assay type: nucleic-acid assay
[37] = tested on: Quadruplex DNA; assay: Binding affinity to c-MYC G-quadruplex DNA (unknown origin) assessed as second order binding constant by electrospray ionization mass spectrometry; assay type: nucleic-acid assay
[38] = tested on: Quadruplex DNA; assay: Thermal stabilization of c-MYC G-quadruplex DNA (unknown origin) assessed as change in melting temperature at 1:2.5 ratio by FRET melting assay; assay type: nucleic-acid assay

ΔTm [1]: 23.5 °C
ΔTm [2]: 24 °C
Structure (SMILES): CN(C)CCCNC(=O)c1ccc(-n2cc(-c3ccc4[nH]c5ccc(-c6cn(-c7ccc(C(=O)NCCCN(C)C)cc7)nn6)cc5c4c3)nn2)cc1

Ka [3]: 3.3 10^6/M
ΔTm [4]: 22.7 °C
Structure (SMILES): CN(C)CCCNC(=O)c1ccc(-n2cc(-c3ccc4c(c3)c3cc(-c5cn(-c6ccc(C(=O)NCCCN(C)C)cc6)nn5)ccc3n4CCCN(C)C)nn2)cc1
IC50 [5]: 4.3 µM
IC50 [6]: 6.8 µM
IC50 [7]: 8.2 µM
IC50 at 24 h [8]: > 45 µM

K [9]: 2.4 10^7/M
K [10]: 1.86 10^6/M
K [11]: 2.87 10^7/M
ΔTm [12]: 18 °C
ΔTm [13]: 18 °C
Structure (SMILES): NCC1=C2CNC(=O)C3=CC(CN)=C(CNC(=O)c4cc(CN)c(o4)CNC(=O)C4=CC(CN)=C(CNC(=O)C(=C1)O2)O4)O3

Ka [14]: 1.3 10^5/M
ΔTm [15]: 17.2 °C
ΔTm [16]: 15.1 °C
Structure (SMILES): c1cc2ccc3ccc4nc3c2nc1CNCCCCCCNCc1ccc2ccc3ccc(nc3c2n1)CNCCCCCCNC4

Ka [3]: 2.56 10^6/M
ΔTm [4]: 8.8 °C
IC50 [17]: 6.2 µM
Structure (SMILES): CN(CCCCn1cc(CCCC(=O)OC[C@H]2O[C@@H](n3cnc4c(=O)[nH]c(N)nc43)[C@@H]3OC(C)(C)O[C@@H]32)nn1)Cc1c2ccccc2c(CN(C)CCCCn2cc(CCCC(=O)OC[C@H]3O[C@@H](n4cnc5c(=O)[nH]c(N)nc54)[C@@H]4OC(C)(C)O[C@@H]43)nn2)c2ccccc12
IC50 [18]: > 50 µM

Ka [3]: 2.31 10^7/M
Ka [19]: 1.3 10^7/M
Ka [20]: 2.38 10^7/M
Structure (SMILES): C[n+]1cccc(-c2cc3c4cc(-c5ccc[n+](C)c5)c5nc(C(F)(F)C(F)(F)C(F)(F)F)nc6c(-c7ccc[n+](C)c7)cc(c7cc(-c8ccc[n+](C)c8)c8nc(C(F)(F)C(F)(F)C(F)(F)F)nc2c8c37)c4c56)c1

Ka [3]: 1 10^5/M
ΔTm [16]: 7.8 °C
Structure (SMILES): Nc1nc(-c2ccccc2)c2c(n1)-c1cc(OCCN3CCCC3)ccc1C2=O

Ka [21]: 2.2 10^5/M
ΔTm [22]: 2.1 °C
Structure (SMILES): Cc1ccc(NC(=O)c2c(C)oc3ccc(O)c(CN4CCCCCC4)c23)cc1
IC50 [23]: 5.8 µM
IC50 [24]: 15.9 µM
IC50 [25]: 12.9 µM
IC50 [26]: 14.1 µM
IC50 [27]: 15.6 µM
IC50 [28]: 8.3 µM
IC50 [29]: 6.5 µM
IC50 [30]: 9.6 µM
IC50 [31]: 11.3 µM
IC50 [32]: 8.3 µM

Ka [33]: 8.33 10^5/M
Ka [34]: 9.53 10^4/M
Structure (SMILES): C(=N\Nc1nc(Nc2ccccc2)nc(Nc2ccccc2)n1)/c1c2ccccc2cc2ccccc12

Ka [14]: 7.4 10^7/M
ΔTm [35]: 33.9 °C
Structure (SMILES): CN(C)c1ccc2cc3c([n+](CCCCCCCCNC(=O)c4ccc(I)cc4)c2c1)C=CCC3

K [36]: 1.2 10^6/M
K [37]: 6.3 10^5/M
ΔTm [38]: 16.4 °C
Structure (SMILES): O=c1c2ccc3c4c(N5CCCCC5)cc5c(=O)n(CCN6CCCCC6)c(=O)c6cc7c(CCN8CCCCC8)cc8cc(c(=O)n1CCN1CCCCC1)c2c3c8c7c4c56
